According to patent publication US10323051B2, “Methods for controlling depolymerization of polymer compositions” (RHODIA OPERATIONS, priority 2011, dated 2019):
Read-outs that look alike come from different tables or passages of the source.

Assays:
[1] = Viscosity of THPS-(1%) polyacrylamide aqueous dispersion (OFITE viscometer, 300 rpm); assay type: physicochemical; settings: for viscosity @300 rpm after 60 minutes: no depolymerization inhibitor; for viscosity @300 rpm after 60 minutes / viscosity @300 rpm (shear rate 500 s-1) after 60 minutes: 1% polyacrylamide; for effect on depolymerization: polyacrylamide with THPS under aerobic conditions at acidic pH, inhibitor added
[2] = guar or guar derivatives mixed with THPS at 10-1000 ppm
Procedure: The polymer(s) under investigation were weighed and dissolved in (deionized) DI water to attain a desired concentration (for example, 0.48% w/w guar, 1.0% w/w polyacrylamide). The solution was mixed thoroughly for 1 h to ensure that the polymer had fully or substantially dissolved and the polymer fully hydrated
The polymer solution as prepared above was placed in a 250 ml beaker. Viscosity was measured with an OFITE viscometer (model 900). Initial viscosity was recorded (300 rpm) (at 500 s^−1) and then an acetic acid/sodium acetate buffer added to achieve a total concentration in the polymer solution of 0.2% w/w. pH and viscosity were recorded and then the depolymerization inhibitor was added. THPS at the concentration being investigated was then added. Viscosity measurements were then made at various time intervals as recorded in the table of FIG. 1.

[3] = Molecular weight determination of polymer in the presence of THPS by GPC with light scattering detection; assay type: physicochemical; settings: for Mn / Mw / Polydispersity (Mw/Mn): 75 ppm THPS, 1% pol A, overnight at ambient temperature

Compound: tetrakis(hydroxymethyl)phosphonium sulfate [THPS, reference compound]
- viscosity @300 rpm after 60 minutes ([1]; 50 ppm THPS, initial viscosity 23.8 cP): 9.7 cP
- viscosity @300 rpm after 60 minutes ([1]; 75 ppm THPS, initial viscosity 23.8 cP): 7.3 cP
- viscosity @300 rpm after 60 minutes ([1]; 100 ppm THPS, initial viscosity 23.8 cP): 3.9 cP
- viscosity @300 rpm after 60 minutes ([1]; 125 ppm THPS, initial viscosity 23.8 cP): 2 cP
- effect on viscosity and molecular weight ([1]; polyacrylamide or polyacrylamide-co-acrylic acid solutions mixed with THPS at 50-1000 ppm): reduction in viscosity along with a corresponding molecular weight reduction
- effect on viscosity and molecular weight [2]: reduction in viscosity of the application fluid along with a corresponding molecular weight reduction
- Mn ([3]; no inhibitor): 652,000 g/mol
- Mw ([3]; no inhibitor): 812,000 g/mol
- Polydispersity (Mw/Mn) ([3]; no inhibitor): 1.25
- Mw of THPS/polymer solution without an inhibitor relative to Mw with an inhibitor ([3]; after being left overnight): approximately half

Compound: Oc1ccc(O)cc1 [hydroquinone]
- viscosity @300 rpm (shear rate 500 s-1) after 60 minutes ([1]; 75 ppm THPS with 25 ppm hydroquinone, initial viscosity 23.8 cP): 14.6 cP
- viscosity @300 rpm (shear rate 500 s-1) after 60 minutes ([1]; 75 ppm THPS with 50 ppm hydroquinone, initial viscosity 25.1 cP): 17.1 cP
- effect on depolymerization [1]: the depolymerization is controlled or stopped

Compound: O=C1O[C@H]([C@@H](O)CO)C(O)=C1O [ascorbic acid]
- viscosity @300 rpm (shear rate 500 s-1) after 60 minutes ([1]; 75 ppm THPS with 100 ppm ascorbic acid (rerun), initial viscosity 27.5 cP): 25.9 cP
- viscosity @300 rpm (shear rate 500 s-1) after 60 minutes ([1]; 75 ppm THPS with 200 ppm ascorbic acid, initial viscosity 27.5 cP): 24.5 cP
- effect on depolymerization [1]: the depolymerization is controlled or stopped
- Mn ([3]; 1 ppm ascorbic acid): 1,460,000 g/mol
- Mw ([3]; 1 ppm ascorbic acid): 1,770,000 g/mol
- Polydispersity (Mw/Mn) ([3]; 1 ppm ascorbic acid): 1.22
- Mn ([3]; 10 ppm ascorbic acid): 1,480,000 g/mol
- Mw ([3]; 10 ppm ascorbic acid): 1,840,000 g/mol
- Polydispersity (Mw/Mn) ([3]; 10 ppm ascorbic acid): 1.25
- Mn ([3]; 50 ppm ascorbic acid): 1,590,000 g/mol
- Mw ([3]; 50 ppm ascorbic acid): 1,890,000 g/mol
- Polydispersity (Mw/Mn) ([3]; 50 ppm ascorbic acid): 1.19
